Data taken from patent publication US10967047B2, “Mitochondrial antiviral-signaling (MAVS) polypeptides and detection and use thereof” (University of Vermont and State Agricultural College, priority 2016, dated 2021).

Columns and labels:
MEFs = assay: IFN-I and IL-6 cytokine secretion by ELISA in MEF culture supernatants; assay type: cell-based, mouse
Experimental: ELISA was used to measure cytokine concentration in supernatant from cultured MEFs and BMDCs, and in sera of SLE patients and healthy control subjects. For assays, samples were centrifuged and IFN-β and IL-6 levels were measured in triplicate using murine or human ELISA kits according to the manufacturer's instructions. (PBL Biosciences). The fold change in IFN-I or IL-6 cells was calculated by directly comparing mock versus virus or chemical inducer of ROS.

MAVS = MAVS oligomerization in human PBMC and plasma (semi-denaturing agarose gel electrophoresis); assay type: cell-based
Experimental: MAVS-deficient and matching WT MEFs, gift of Z. J. Chen (Z. J. Chen et al. (2005) Cell 122, 669-682), were maintained in Dulbecco's modified Eagle's medium (DMEM) (Hyclone), supplemented with 10% heat-inactivated fetal calf serum (FCS) (Hyclone), 100 mM L-glutamine (Cellgro Mediatech), and 10,000 units/mL penicillin/10 mg/mL streptomycin sulfate (Life Technologies). C57BL6 or B6; 129-Mavstm1Zjc/J mice (The Jackson Laboratory, Bar Harbor, Me.) were maintained at the University of Vermont under a protocol approved by the Institutional Animal Care and Use Committee. Murine BMDCs were prepared as described by Inaba et al. (K. Inaba et al., (1992) Journal of Experimental Medicine 176, 1693-1702). In brief, cells derived from femur bone marrow were cultured at a density of 5×10^5/mL in 10-cm plates in RPMI 1640 (HyClone), supplemented with 5% heat-inactivated FCS, 100 mmol L-glutamine, 100 mmol sodium pyruvate, 10,000 units/mL penicillin/10 mg/mL streptomycin sulfate, 5×10^−5 mol 2-mercaptoethanol (Sigma, St. Louis, Mo.), and 10 μg/mL GM-CSF (Life Technologies). Human subjects were enrolled under a protocol approved by the University of Vermont Institutional Review Board. Samples from 17 SLE patients fulfilling the American College of Rheumatology diagnostic criteria were studied (E. M. Tan et al., (1982) Arthritis and Rheumatism 25, 1271-1277). 16 out of 17 patients were female, and the age of study participants was 47±3. The disease activity was assessed by the SLE disease activity index (SLEDAI) scores, ranging from 0 to 10 (C. Bombardier et al., (1992) Arthritis and Rheumatism 35, 630-640). Upon informed consent, primary human PBMCs were obtained from heparinized whole-blood samples from SLE patients. Control PBMCs were generated from age-, sex-, and ethnicity-matched healthy subjects. PBMCs were isolated using standard Ficoll gradient centrifugation as previously described (R. Mallone et al., (2011) Clin. and Exp. Immunol. 163, 33-49). Cells were either used immediately to prepare lysates for immunoblotting or cultured at a density of 5×10^5/mL in a 12-well culture plate with RPMI 1640 (HyClone), supplemented with 5% heat-inactivated FCS, 100 mmol L-glutamine, 100 mmol sodium pyruvate, and 10,000 units/mL penicillin/10 mg/mL streptomycin sulfate. Enriched monocytes from PBMCs were used to prepare hDCs using negative magnetic bead selection (Miltenyi), and were subsequently cultivated for 6 d in 10 μg/mL GM-CSF and 500 U/mL IL-4. All cells were maintained in a humidified chamber at 37° C. and 5% CO2.
SDD-AGE was performed according to a published protocol with minor modifications (Alberti et al., (2009) Cell 137, 146-158). In brief, mitochondria were resuspended in sample buffer (0.5×TBE, 10% glycerol, 2% SDS, and 0.0025% bromophenol blue) and loaded onto a vertical 1.5% agarose gel. After electrophoresis in the running buffer (1×TBE and 0.1% SDS) for 35 min with a constant voltage of 75 V at 4° C., proteins were transferred to PVDF membranes using a Trans-Blot Turbo Transfer System (BioRad) for immunoblotting.
PVDF membranes were blocked in 5% solution of nonfat powdered milk in Tris-buffered saline. Antibodies used were specific for MAVS and Actin (Santa Cruz); RIPK1 and TRAF2 (BD Biosciences); TANK, TRADD, RIG-I, and GAPDH (Cell Signaling); MDAS and COX4 (Abcam), Alexa 488 (Life Technologies), and IRF3 (Thermo Fisher), respectively. […] Chemiluminescence was detected and recorded using a Biorad Chemidoc instrument. […]

Drp1 = assay: Phosphorylated Drp1 (Drp1 616p) at purified mitochondria, densitometry normalized to Cox IV; assay type: cell-based
Experimental: To activate MAVS commercially available 5′-ppp-RNA was used at a concentration of 1 μg/ml, which activates RIG-I helicase. As an alternative GOx was used as previously described [Szeto, H. H., Br J Pharmacol, 2014. 171(8): p. 2029-50]. Mitochondria were purified by anti-Tom22 magnetic beads as previously described [Perl, A., et al., Int Rev Immunol, 2004. 23(3-4): p. 293-313]. Changes in the level of Drp1^616p at mitochondria were determined by densitometry, which was normalized to the level of Cox IV (FIG. 14A-B).

Compound	IFN-I secretion with MitoQ (MEFs; MEF with or without MitoQ, GOx or SINV (FIG. 3D))	GOx-induced MAVS oligomerization in PBMCs after pretreatment (MAVS; healthy-donor PBMCs pretreated with MitoQ or grown in presence of β-Me, then GOx (FIG. 4A))	level of phosphorylated Drp1 at mitochondria with MitoQ pre-treatment (Drp1; same cells pre-treated with MitoQ, versus 5′-ppp-RNA or GOx alone (FIG. 14A-B))	IFN-I secretion induced by the substance (MEFs; MAVS-WT MEFs, not observed in MAVS-KO (FIG. 2E, 2J))	IL-6 secretion induced by the substance (MEFs; MAVS-WT MEFs, not observed in MAVS-KO (FIG. 2F, 2K))	induction of MAVS oligomerization in PBMCs (MAVS; healthy-donor PBMCs treated with GOx (FIG. 4A))	level of phosphorylated Drp1 at mitochondria after MAVS activation (Drp1; 5′-ppp-RNA 1 μg/ml or GOx (FIG. 14A-B))
COC1=C(OC)C(=O)C(CCCCCCCCCC[P+](c2ccccc2)(c2ccccc2)c2ccccc2)=C(C)C1=O.CS(=O)(=O)[O-] [MitoQ, [10-(4,5-Dimethoxy-2-methyl-3,6-dioxo-1,4-cyclohexadien-1-yl)decyl](triphenyl)phosphonium methanesulfonate]	reduced IFN-I secretion	MAVS oligomerization did not occur	higher levels	–	–	–	–
glucose oxidase [GOx]	–	–	–	increased secretion	increased secretion	induced pronounced MAVS oligomerization	lower levels of phosphorylated Drp1 at mitochondria
